# Measurements published in patent US20260200849A1, “CATIONIC LIPIDS AND PREPARATION METHOD THEREOF” (RiboX Therapeutics HK Limited, priority 2024, published 2026).
# Values joined by “and” are separate entries in the source; they are usually repeats but may differ in a detail not shown here. Equal values may be shown once.
# Tests used:
# Balb/c mice = test: In vivo expression by IV, 0.05 mg/kg luciferase RNA-LNPs, IVIS luminescence; details: Formulation No. 001, RNA No. 331; female Balb/c mice, 0.05 mg*kg−1 intravenous, 24-hours post injection
# Summary of the method: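 IVIS bioluminescence was read after IP luciferin (15 mg/ml): whole-body at 24 and 72 h, or whole-body/liver/spleen at 24 h. Dosing was a single IV injection of 0.05 mg*kg−1 RNA-LNPs encoding firefly luciferase into 7-8 week old female Balb/c mice, N=3.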
# Hep G2 cells [1] = test: In vitro expression: luciferase activity in Hep G2 cells transfected with RNA-LNPs; type: cell-based; details: Formulation No. 001, RNA No. 331 (firefly-luciferase), 100 ng/mL RNA-LNPs, 72 hours post transfection
# Procedure: 2E5 Hep G2 cells were transfected with 100 ng/mL of RNA-LNPs encoding for firefly-luciferase. At 72 hours post transfection, the cells were washed and lysed. The luciferase expression (2-well repeat) was determined in the cell lysates with the luciferase assay reagent kit (Promega), according to the kit protocol, luciferase activity was measured by a luminometer.
# MCP-1 = test: In vivo tolerability by IV: serum MCP-1 by Luminex; set-up: species or system C57BL/6J mice; details: Formulation No. 001, RNA No. 331, male C57BL/6J mice, 1.0 mg*kg/1 intravenous; for MCP-1 at 2 h: 2 hours post injection; for MCP-1 at 24 h: 24 hours post injection
# Summary of the method: (§1)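 Male C57BL/6J mice aged 6-8 weeks (N=3) received 1.0 mg*kg−1 firefly-luciferase RNA-LNPs intravenously, with PBS as negative control. Serum taken at 2 and 24 h post-injection was assayed for MCP-1 and IL-6 by Luminex.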
# C57BL/6J mice = test: In vivo expression by IV, 1.0 mg/kg luciferase RNA-LNPs, whole-body and organ IVIS luminescence; details: Formulation No. 001, RNA No. 331; male C57BL/6J mice, 1.0 mg*kg−1 intravenous, 24-hours post injection
# Summary of the method: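 Male C57BL/6J mice, 6-8 weeks old (N=3), received 1.0 mg*kg−1 firefly-luciferase RNA-LNPs IV. At 24 h post-dose, luciferin (15 mg/ml) was given IP, and whole-body, liver, spleen, kidney, small and large intestine luminescence was imaged by IVIS.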
# Hep G2 cells [2] = test: In vitro toxicity: Hep G2 cell viability by CellTiter-Glo; type: cell-based; details: Formulation No. 001, RNA No. 331, 1 μg/mL RNA-LNPs, 72 hours post transfection, cell only = 100%
# Procedure: 2E5 Hep G2 cells were transfected with 1 μg/mL RNA-LNPs. At 72 hours post transfection, cell viability (2-well repeat) was determined with the CellTiter-Glo® reagent kit, according to the kit protocol, measured by a luminometer. Cell only as control (100%).
# The cell viability was calculated according to the following formula: […]
# IL-6 = test: In vivo tolerability by IV: serum IL-6 by Luminex; set-up: species or system C57BL/6J mice; details: Formulation No. 001, RNA No. 331, male C57BL/6J mice, 1.0 mg*kg/1 intravenous; for IL-6 at 2 h: 2 hours post injection; for IL-6 at 24 h: 24 hours post injection
# Summary of the method: as §1
# [3] = In vivo lipid metabolism by IV: ionizable lipid concentration in plasma and liver by LC-MS/MS; set-up: species or system Sprague-Dawley (SD) rats; details: IV 0.15 mg/kg RNA-LNPs (hEPO), male SD rats, individual animals N=3
# Procedure: In Vivo Lipid Metabolism by IV 7-8 week old, male Sprague-Dawley (SD) rats (N=3) were injected with 0.15 mg*kg−1 of RNA-LNPs encoding for hEPO by intravenous injection. At 1-/6-/96-/168-hours post injection, about 100 μL blood will be harvested and immediately added to the EDTAK2 containing tube. Place on wet ice and then centrifuged at 3000 g×5 min to obtain plasma. 30 μL plasma will be aliquoted to the 1.5 mL tubes. At terminal 6-/168-hours post injection, the rats will be euthanized with CO2, hemorrhaged immediately with cardiac puncture, respectively. The livers were harvested, weighed and washed with saline, then put into 50 ml centrifuge tube placed in liquid nitrogen, then transferred into wet ice, and finally stored at −80° C. immediately. Both plasma and liver samples were used for ionizable lipid concentration quantification by LC-MS/MS. The lower limit of quantitation (LLOQ) is 1 ng/mL in plasma or 11 ng/g in liver. BQL—Below the lower limit of quantitation (LLOQ).
# [4] = LNP size and polydispersity index (PDI) by dynamic light scattering (Zetasizer); type: physicochemical; details: for Size (nm): Formulation No. 001 (Ionizable lipid:DSPC:cholesterol:DMG-PEG2000 = 50:10:38.5:1.5, N/P 6), RNA No. 331
# Procedure: (§2) The LNP size and polydispersity index (PDI), determined by dynamic light scattering (DLS), and zeta potential were measured by a Zetasizer machine (Malvern). RNA concentration and encapsulation efficacy (EE %) were analyzed by the Quant-IT Ribogreen kit by calculating the percentage encapsulation at 100%—(RNA-LNPs/RNA-LNPs with Triton X-100).
# [5] = RNA encapsulation efficacy (EE %) by Quant-IT Ribogreen kit; type: physicochemical; details: LNP
# Procedure: as §2
# [6] = Formulation No. 001, RNA No. 019 (hEPO)
# [7] = Formulation No. 001, RNA No. 331
Compound,Liver (p/s) (Mean) (Balb/c mice),Spleen (p/s) (Mean) (Balb/c mice),Whole body (p/s) (Mean) (Balb/c mice),In vitro Expression (Mean) (Hep G2 cells [1]),MCP-1 at 2 h (MCP-1),MCP-1 at 24 h (MCP-1),Kidney (p/s) (C57BL/6J mice),Large intestine (p/s) (C57BL/6J mice),Liver (p/s) (C57BL/6J mice),Small intestine (p/s) (C57BL/6J mice),Spleen (p/s) (C57BL/6J mice),Whole body (p/s) (C57BL/6J mice),In vitro cell viability (%) (Mean) (Hep G2 cells [2]),IL-6 at 2 h (IL-6),IL-6 at 24 h (IL-6),Size (nm) [4],"PDI [4, 7]","EE (%) [5, 7]",also measured
CCCCC/C=C\C/C=C\CCCCCCCCOC(=O)NC(COC(=O)NCCN1CCCCCC1)C(=O)OCCCCCC(=O)OCC(CCCCCCCC)CCCCCCCCCC (centres unmarked) [Lipid 911],5.42E+08 p/s,1.27E+08 p/s,1.17E+09 p/s,5.01E+05,2000 pg/mL,254 pg/mL,3.75E+07 p/s,8.42E+07 p/s,7.97E+09 p/s,6.47E+08 p/s,8.51E+08 p/s,7.27E+09 p/s,81.84%,28.5 pg/mL,4.43 pg/mL,64.33 nm,0.03,98.24%,"Plasma (ng/mL), ionizable lipid concentration ([3]; 1 h post injection): 7622 ng/mL and 5572 ng/mL and 3130 ng/mL; Liver (ng/g), ionizable lipid concentration ([3]; 6 h post injection): 29536 ng/g and 35435 ng/g; Plasma (ng/mL), ionizable lipid concentration ([3]; 6 h post injection): 298 ng/mL and 2.59 ng/mL and 3.41 ng/mL; Liver (ng/g), ionizable lipid concentration ([3]; 168 h post injection): 890 ng/g and 1331 ng/g and 618 ng/g; concentration at 6 h ([3]; male, Sprague-Dawley, rat, liver, iv, 0.15 mg/kg, 6 h post injection, read-out: Liver (ng/g), ionizable lipid concentration): 29400 ng/g; PDI [4, 6]: 0.05; Size [4, 6]: 58.16 nm; EE (%) [5, 6]: 94.15%"
CCCCCCCCC(CCCCCC)C(=O)OCCCCCCCCOC(=O)NC(COC(=O)NCCN1CCCCCC1)C(=O)OCCCCCCCCCCC(=O)OCCCCCC (centres unmarked) [Lipid 929],2.99E+08 p/s,5.00E+07 p/s,1.02E+09 p/s,2.24E+05,783 pg/mL,58.6 pg/mL,2.14E+07 p/s,9.97E+07 p/s,3.67E+09 p/s,3.16E+08 p/s,4.12E+08 p/s,2.83E+09 p/s,100.37%,14.7 pg/mL,2.1 pg/mL,67.82 nm,0.01,95.55%,–
CCCCCCCCCC(=O)OCCCCCCCOC(=O)C(COC(=O)NCCN1CCCCC1)NC(=O)OCCCCCCCCOC(=O)C(CCCCCC)CCCCCCCC (centres unmarked) [Lipid 933],6.92E+08 p/s,1.49E+08 p/s,2.89E+09 p/s,1.26E+06,1240 pg/mL,300 pg/mL,6.08E+07 p/s,9.52E+07 p/s,3.90E+09 p/s,6.36E+08 p/s,5.98E+08 p/s,3.45E+09 p/s,95.05%,68.4 pg/mL,8.03 pg/mL,75.47 nm,0.02,92.12%,–
CCCCC/C=C\C/C=C\CCCCCCCCOC(=O)NC(COC(=O)NCCN1CCCCCC1)C(=O)OCCCCCC(=O)OCCCCCCCCCCC (centres unmarked) [Lipid 939],2.92E+08 p/s,1.74E+08 p/s,1.17E+09 p/s,3.08E+05,2440 pg/mL,956 pg/mL,1.21E+07 p/s,1.70E+08 p/s,5.86E+07 p/s,4.96E+08 p/s,1.18E+08 p/s,3.50E+09 p/s,95.74%,4280 pg/mL,9.43 pg/mL,104.00 nm,0.19,90.23%,–
CCCCC/C=C\C/C=C\CCCCCCCCOC(=O)NC(COC(=O)NCCN1CCCCCC1)C(=O)OCCCCCCCOC(=O)CCCCCCCCC (centres unmarked) [Lipid 944],5.10E+08 p/s,1.31E+08 p/s,1.29E+09 p/s,3.60E+05,3640 pg/mL,161 pg/mL,1.54E+07 p/s,5.53E+07 p/s,5.27E+08 p/s,1.93E+08 p/s,4.76E+08 p/s,1.06E+09 p/s,95.62%,432 pg/mL,2.5 pg/mL,86.75 nm,0.17,90.80%,–
CCCCC/C=C\CCOC(=O)CCCCCOC(=O)C(COC(=O)NCCN1CCCCC1)NC(=O)OCCCCCCCCOC(=O)C(CCCCCC)CCCCCCCC (centres unmarked) [Lipid 954],8.01E+08 p/s,9.82E+07 p/s,2.71E+09 p/s,4.78E+05,4780 pg/mL,789 pg/mL,1.53E+08 p/s,9.03E+08 p/s,3.01E+09 p/s,1.69E+09 p/s,7.74E+08 p/s,1.08E+10 p/s,93.41%,4220 pg/mL,8.87 pg/mL,83.18 nm,0.01,88.46%,–
CCCCC/C=C\C/C=C\CCCCCCCCOC(=O)NC(COC(=O)NCCN1CCCCCC1)C(=O)OCCCCCCCCCC(=O)OCCCCCCC (centres unmarked) [Lipid 959],1.07E+09 p/s,2.04E+08 p/s,3.16E+09 p/s,2.95E+05,1760 pg/mL,176 pg/mL,1.10E+07 p/s,3.10E+07 p/s,1.10E+09 p/s,1.43E+08 p/s,4.52E+08 p/s,7.04E+08 p/s,96.03%,78.7 pg/mL,1.8 pg/mL,91.09 nm,0.13,95.49%,–
